Measured values taken from ChEMBL document CHEMBL4507283, “Data for DCP probe BI-1935” (2021).

Key:
[1] = target: Mitogen-activated protein kinase kinase kinase 7 (Homo sapiens) (UniProt O43318); conditions: Compound concentration 1000.0 nM
[2] = target: Tyrosine-protein kinase ABL2 (Homo sapiens) (UniProt P42684); conditions: Compound concentration 1000.0 nM
[3] = target: Mitogen-activated protein kinase 14 (Homo sapiens) (UniProt Q16539); conditions: Compound concentration 1000.0 nM
[4] = target: Serine/threonine-protein kinase 32A (Homo sapiens) (UniProt Q8WU08); conditions: Compound concentration 1000.0 nM
[5] = target: Testis-specific serine/threonine-protein kinase 3 (Homo sapiens) (UniProt Q96PN8); conditions: Compound concentration 1000.0 nM
[6] = target: Tyrosine-protein kinase CSK (Homo sapiens) (UniProt P41240); conditions: Compound concentration 1000.0 nM
[7] = target: Receptor-type tyrosine-protein kinase FLT3 (Homo sapiens) (UniProt P36888); conditions: Compound concentration 1000.0 nM
[8] = target: Cathepsin G (Homo sapiens) (UniProt P08311); experiment: PEPCATHEPSG Eurofins-Panlabs selectivity data (BI); conditions: Compound concentration 10.0 uM
[9] = target: 5-hydroxytryptamine receptor 2C (Homo sapiens) (UniProt P28335); conditions: Compound concentration 10.0 uM
[10] = target: B2 bradykinin receptor (Homo sapiens) (UniProt P30411); experiment: B2/HU Eurofins-Panlabs selectivity data (BI); conditions: Compound concentration 10.0 uM
[11] = target: Proto-oncogene tyrosine-protein kinase ROS (Homo sapiens) (UniProt P08922); conditions: Compound concentration 1000.0 nM
[12] = target: Polyunsaturated fatty acid lipoxygenase ALOX15 (Oryctolagus cuniculus) (UniProt P12530); experiment: 15LO Eurofins-Panlabs selectivity data (BI); conditions: Compound concentration 10.0 uM
[13] = target: Neutrophil elastase (Homo sapiens) (UniProt P08246); experiment: ELASTASEPMN Eurofins-Panlabs selectivity data (BI); conditions: Compound concentration 10.0 uM
[14] = target: Serine/threonine-protein kinase/endoribonuclease IRE1 (Homo sapiens) (UniProt O75460); conditions: Compound concentration 1000.0 nM
[15] = target: Ribosomal protein S6 kinase alpha-6 (Homo sapiens) (UniProt Q9UK32); conditions: Compound concentration 1000.0 nM
[16] = target: Wee1-like protein kinase 2 (Homo sapiens) (UniProt P0C1S8); conditions: Compound concentration 1000.0 nM
[17] = target: Serine/threonine-protein kinase Chk2 (Homo sapiens) (UniProt O96017); conditions: Compound concentration 1000.0 nM
[18] = target: Homeodomain-interacting protein kinase 2 (Homo sapiens) (UniProt Q9H2X6); conditions: Compound concentration 1000.0 nM
[19] = target: Angiotensin-converting enzyme (Oryctolagus cuniculus) (UniProt P12822); experiment: ANGIOCONVENZ Eurofins-Panlabs selectivity data (BI); conditions: Compound concentration 10.0 uM
[20] = target: Leukotriene A-4 hydrolase (Cavia porcellus) (UniProt P19602); experiment: LTA4HYD Eurofins-Panlabs selectivity data (BI); conditions: Compound concentration 10.0 uM
[21] = target: Protein-tyrosine kinase 6 (Homo sapiens) (UniProt Q13882); conditions: Compound concentration 1000.0 nM
[22] = target: Ribosomal protein S6 kinase alpha-4 (Homo sapiens) (UniProt O75676); conditions: Compound concentration 1000.0 nM
[23] = target: Focal adhesion kinase 1 (Homo sapiens) (UniProt Q05397); conditions: Compound concentration 1000.0 nM
[24] = target: 5-hydroxytryptamine receptor 1A (Homo sapiens) (UniProt P08908); conditions: Compound concentration 10.0 uM
[25] = target: Serine/threonine-protein kinase Nek4 (Homo sapiens) (UniProt P51957); conditions: Compound concentration 1000.0 nM
[26] = target: Phosphatidylinositol 4,5-bisphosphate 3-kinase catalytic subunit delta isoform (Homo sapiens) (UniProt O00329); conditions: Compound concentration 1000.0 nM
[27] = target: Serine/threonine-protein kinase 17B (Homo sapiens) (UniProt O94768); conditions: Compound concentration 1000.0 nM
[28] = target: Histamine H3 receptor (Homo sapiens) (UniProt Q9Y5N1); conditions: Compound concentration 10.0 uM
[29] = target: RAF proto-oncogene serine/threonine-protein kinase (Homo sapiens) (UniProt P04049); conditions: Compound concentration 1000.0 nM
[30] = target: Cyclin-dependent kinase 15 (Homo sapiens) (UniProt Q96Q40); conditions: Compound concentration 1000.0 nM
[31] = target: Acetylcholine receptor subunit alpha (Homo sapiens) (UniProt P02708); experiment: NACH/H Eurofins-Panlabs selectivity data (BI); conditions: Compound concentration 10.0 uM
[32] = target: Serine/threonine-protein kinase SIK3 (Homo sapiens) (UniProt Q9Y2K2); conditions: Compound concentration 1000.0 nM
[33] = target: Sodium-dependent noradrenaline transporter (Homo sapiens) (UniProt P23975); conditions: Compound concentration 10.0 uM
[34] = target: MAP/microtubule affinity-regulating kinase 3 (Homo sapiens) (UniProt P27448); conditions: Compound concentration 1000.0 nM
[35] = target: Beta-adrenergic receptor kinase 1 (Homo sapiens) (UniProt P25098); conditions: Compound concentration 1000.0 nM
[36] = target: Non-receptor tyrosine-protein kinase TYK2 (Homo sapiens) (UniProt P29597); conditions: Compound concentration 1000.0 nM
[37] = target: Cyclin-dependent kinase 11A (Homo sapiens) (UniProt Q9UQ88); conditions: Compound concentration 1000.0 nM
[38] = target: Receptor-type tyrosine-protein kinase FLT3 (Homo sapiens) (UniProt P36888); conditions: Compound concentration 1000.0 nM; remark: listed apart in the source
[39] = target: Prostaglandin G/H synthase 1 (Homo sapiens) (UniProt P23219); experiment: COX-1 Eurofins-Panlabs selectivity data (BI); conditions: Compound concentration 10.0 uM
[40] = system: Epidermal growth factor receptor (Homo sapiens), P00533 [G719C]; conditions: Compound concentration 1000.0 nM
[41] = target: Serine/threonine-protein kinase Nek7 (Homo sapiens) (UniProt Q8TDX7); conditions: Compound concentration 1000.0 nM
[42] = target: 5-hydroxytryptamine receptor 4 (Cavia porcellus) (UniProt O70528); experiment: 5HT4/GPIG Eurofins-Panlabs selectivity data (BI); conditions: Compound concentration 10.0 uM
[43] = target: Serine/threonine-protein kinase Nek5 (Homo sapiens) (UniProt Q6P3R8); conditions: Compound concentration 1000.0 nM
[44] = target: NUAK family SNF1-like kinase 1 (Homo sapiens) (UniProt O60285); conditions: Compound concentration 1000.0 nM
[45] = system: Receptor-type tyrosine-protein kinase FLT3 (Homo sapiens), P36888 [D835H]; conditions: Compound concentration 1000.0 nM

Chain of Cathepsin G (Homo sapiens) (P08311 whole entry): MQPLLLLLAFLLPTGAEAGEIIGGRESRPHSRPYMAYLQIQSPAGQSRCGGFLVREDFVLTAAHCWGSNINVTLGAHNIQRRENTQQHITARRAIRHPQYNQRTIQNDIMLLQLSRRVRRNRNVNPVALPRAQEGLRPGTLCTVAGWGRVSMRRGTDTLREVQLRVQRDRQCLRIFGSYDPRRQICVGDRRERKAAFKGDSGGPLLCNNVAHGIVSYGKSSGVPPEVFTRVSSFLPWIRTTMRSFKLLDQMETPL
Chain of Prostaglandin G/H synthase 1 (Homo sapiens) (P23219 whole entry): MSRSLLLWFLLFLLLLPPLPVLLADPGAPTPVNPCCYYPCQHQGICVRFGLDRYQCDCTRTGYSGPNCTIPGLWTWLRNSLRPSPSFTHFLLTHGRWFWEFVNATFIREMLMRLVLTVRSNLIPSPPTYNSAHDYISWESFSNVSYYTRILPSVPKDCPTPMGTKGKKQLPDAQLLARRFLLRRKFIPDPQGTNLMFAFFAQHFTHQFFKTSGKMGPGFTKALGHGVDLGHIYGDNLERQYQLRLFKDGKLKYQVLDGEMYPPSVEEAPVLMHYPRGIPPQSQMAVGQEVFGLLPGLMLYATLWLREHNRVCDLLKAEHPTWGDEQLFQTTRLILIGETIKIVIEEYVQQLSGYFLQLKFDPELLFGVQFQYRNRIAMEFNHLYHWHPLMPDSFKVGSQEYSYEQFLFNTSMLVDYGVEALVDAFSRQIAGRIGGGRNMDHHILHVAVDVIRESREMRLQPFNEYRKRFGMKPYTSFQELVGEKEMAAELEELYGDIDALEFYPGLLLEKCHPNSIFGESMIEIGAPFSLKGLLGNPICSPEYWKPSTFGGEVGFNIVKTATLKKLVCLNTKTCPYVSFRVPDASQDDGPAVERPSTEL
Chain of Focal adhesion kinase 1 (Homo sapiens) (Q05397 2-1052 limits assumed): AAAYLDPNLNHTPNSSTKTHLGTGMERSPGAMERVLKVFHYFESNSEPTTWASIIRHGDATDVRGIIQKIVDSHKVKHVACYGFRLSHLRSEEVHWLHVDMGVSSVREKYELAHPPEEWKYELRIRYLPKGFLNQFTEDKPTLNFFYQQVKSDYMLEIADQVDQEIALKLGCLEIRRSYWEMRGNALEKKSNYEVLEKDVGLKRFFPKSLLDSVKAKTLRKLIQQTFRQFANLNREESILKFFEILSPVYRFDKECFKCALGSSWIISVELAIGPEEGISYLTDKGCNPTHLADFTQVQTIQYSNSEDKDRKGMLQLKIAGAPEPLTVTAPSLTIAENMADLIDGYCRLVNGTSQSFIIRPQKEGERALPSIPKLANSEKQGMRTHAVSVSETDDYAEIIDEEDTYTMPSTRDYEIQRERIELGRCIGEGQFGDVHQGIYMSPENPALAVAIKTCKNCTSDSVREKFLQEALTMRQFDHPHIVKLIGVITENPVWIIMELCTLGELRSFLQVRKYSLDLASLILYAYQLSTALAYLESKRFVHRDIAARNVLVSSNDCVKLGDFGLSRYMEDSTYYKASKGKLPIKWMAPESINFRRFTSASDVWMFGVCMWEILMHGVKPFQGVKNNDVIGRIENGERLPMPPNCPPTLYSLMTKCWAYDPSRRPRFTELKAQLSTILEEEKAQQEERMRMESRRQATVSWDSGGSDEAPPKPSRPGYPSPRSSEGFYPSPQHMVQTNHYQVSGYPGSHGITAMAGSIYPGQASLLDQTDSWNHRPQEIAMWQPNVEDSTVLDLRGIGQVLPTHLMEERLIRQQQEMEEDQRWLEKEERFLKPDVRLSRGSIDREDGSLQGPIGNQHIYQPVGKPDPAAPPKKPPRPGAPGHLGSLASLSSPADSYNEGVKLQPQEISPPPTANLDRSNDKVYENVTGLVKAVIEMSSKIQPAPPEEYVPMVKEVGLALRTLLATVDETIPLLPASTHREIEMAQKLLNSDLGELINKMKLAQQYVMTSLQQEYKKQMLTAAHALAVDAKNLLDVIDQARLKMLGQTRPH
Chain of Serine/threonine-protein kinase/endoribonuclease IRE1 (Homo sapiens) (O75460 19-977 limits assumed): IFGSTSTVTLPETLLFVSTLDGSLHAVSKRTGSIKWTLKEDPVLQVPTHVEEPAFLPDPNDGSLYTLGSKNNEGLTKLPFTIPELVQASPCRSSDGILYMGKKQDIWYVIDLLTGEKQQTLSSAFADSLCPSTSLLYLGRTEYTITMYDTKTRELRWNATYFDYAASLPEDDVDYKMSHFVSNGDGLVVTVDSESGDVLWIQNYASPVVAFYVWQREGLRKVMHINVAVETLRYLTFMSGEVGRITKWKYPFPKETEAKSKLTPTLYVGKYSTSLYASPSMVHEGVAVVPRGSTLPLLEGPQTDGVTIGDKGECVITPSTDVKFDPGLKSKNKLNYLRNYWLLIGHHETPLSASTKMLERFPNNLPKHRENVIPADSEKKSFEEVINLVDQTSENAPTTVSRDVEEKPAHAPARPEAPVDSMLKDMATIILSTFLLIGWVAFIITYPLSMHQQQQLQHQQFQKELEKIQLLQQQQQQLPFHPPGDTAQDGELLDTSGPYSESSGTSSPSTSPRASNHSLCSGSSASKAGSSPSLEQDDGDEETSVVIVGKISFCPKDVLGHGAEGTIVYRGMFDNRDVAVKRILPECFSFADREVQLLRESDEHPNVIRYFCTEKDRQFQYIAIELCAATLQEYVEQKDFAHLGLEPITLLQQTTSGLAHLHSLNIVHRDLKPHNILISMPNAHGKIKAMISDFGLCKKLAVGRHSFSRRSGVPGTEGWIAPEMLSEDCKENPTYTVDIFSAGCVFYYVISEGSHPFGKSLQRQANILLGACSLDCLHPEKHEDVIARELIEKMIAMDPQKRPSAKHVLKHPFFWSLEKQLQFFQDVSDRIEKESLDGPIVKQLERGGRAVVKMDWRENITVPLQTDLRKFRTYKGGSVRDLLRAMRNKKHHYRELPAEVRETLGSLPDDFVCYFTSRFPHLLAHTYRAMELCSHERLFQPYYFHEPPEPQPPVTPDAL
Chain of Serine/threonine-protein kinase 32A (Homo sapiens) (Q8WU08 whole entry): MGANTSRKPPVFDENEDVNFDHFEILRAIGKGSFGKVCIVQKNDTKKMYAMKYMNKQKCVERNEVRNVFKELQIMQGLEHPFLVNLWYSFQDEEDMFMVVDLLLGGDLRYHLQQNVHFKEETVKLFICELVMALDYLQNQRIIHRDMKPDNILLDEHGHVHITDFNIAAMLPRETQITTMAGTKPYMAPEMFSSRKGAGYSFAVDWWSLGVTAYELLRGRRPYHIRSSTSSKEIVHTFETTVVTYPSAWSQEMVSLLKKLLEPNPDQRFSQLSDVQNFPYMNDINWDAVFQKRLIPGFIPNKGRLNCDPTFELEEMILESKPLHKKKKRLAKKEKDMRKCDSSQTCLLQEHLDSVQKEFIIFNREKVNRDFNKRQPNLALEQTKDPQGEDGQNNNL
Chain of Mitogen-activated protein kinase 14 (Homo sapiens) (Q16539 whole entry): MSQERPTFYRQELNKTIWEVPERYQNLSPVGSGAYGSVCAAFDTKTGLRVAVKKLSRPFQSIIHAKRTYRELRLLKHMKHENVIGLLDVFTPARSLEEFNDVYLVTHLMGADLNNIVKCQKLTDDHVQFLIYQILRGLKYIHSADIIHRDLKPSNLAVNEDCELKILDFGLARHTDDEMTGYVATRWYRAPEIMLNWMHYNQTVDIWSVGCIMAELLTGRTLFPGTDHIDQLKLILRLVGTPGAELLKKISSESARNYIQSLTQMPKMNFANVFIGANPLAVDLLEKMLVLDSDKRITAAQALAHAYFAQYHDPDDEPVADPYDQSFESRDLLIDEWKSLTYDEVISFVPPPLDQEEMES
Chain of Polyunsaturated fatty acid lipoxygenase ALOX15 (Oryctolagus cuniculus) (P12530 whole entry): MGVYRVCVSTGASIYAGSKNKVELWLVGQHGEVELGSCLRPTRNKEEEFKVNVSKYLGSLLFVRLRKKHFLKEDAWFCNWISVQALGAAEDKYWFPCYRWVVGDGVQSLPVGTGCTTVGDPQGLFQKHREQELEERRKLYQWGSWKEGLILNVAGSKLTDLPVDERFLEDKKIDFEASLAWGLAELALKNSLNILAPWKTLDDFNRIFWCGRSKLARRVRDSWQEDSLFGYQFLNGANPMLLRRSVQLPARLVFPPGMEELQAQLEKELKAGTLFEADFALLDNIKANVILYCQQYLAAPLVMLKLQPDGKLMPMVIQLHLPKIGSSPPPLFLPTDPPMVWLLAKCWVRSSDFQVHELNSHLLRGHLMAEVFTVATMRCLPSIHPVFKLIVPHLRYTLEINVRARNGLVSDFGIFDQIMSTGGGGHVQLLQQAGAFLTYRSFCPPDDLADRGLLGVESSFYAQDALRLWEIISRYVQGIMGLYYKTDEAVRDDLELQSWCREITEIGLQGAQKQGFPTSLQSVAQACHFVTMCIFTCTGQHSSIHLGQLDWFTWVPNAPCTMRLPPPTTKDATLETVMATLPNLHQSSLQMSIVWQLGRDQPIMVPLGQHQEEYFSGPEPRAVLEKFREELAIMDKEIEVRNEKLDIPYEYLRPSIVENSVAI
Chain of Acetylcholine receptor subunit alpha (Homo sapiens) (P02708 whole entry): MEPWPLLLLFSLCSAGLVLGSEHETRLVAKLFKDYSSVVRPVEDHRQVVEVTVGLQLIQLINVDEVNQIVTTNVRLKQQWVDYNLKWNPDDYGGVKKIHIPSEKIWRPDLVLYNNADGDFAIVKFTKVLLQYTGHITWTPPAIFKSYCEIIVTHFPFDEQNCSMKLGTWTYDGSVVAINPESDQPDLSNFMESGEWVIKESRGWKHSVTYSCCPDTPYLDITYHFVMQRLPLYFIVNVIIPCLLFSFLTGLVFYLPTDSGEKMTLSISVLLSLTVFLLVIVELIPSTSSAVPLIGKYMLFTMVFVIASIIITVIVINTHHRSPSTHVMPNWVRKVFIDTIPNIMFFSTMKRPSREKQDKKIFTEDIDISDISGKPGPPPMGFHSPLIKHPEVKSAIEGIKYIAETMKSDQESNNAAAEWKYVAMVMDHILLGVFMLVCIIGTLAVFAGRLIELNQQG
Chain of Testis-specific serine/threonine-protein kinase 3 (Homo sapiens) (Q96PN8 whole entry): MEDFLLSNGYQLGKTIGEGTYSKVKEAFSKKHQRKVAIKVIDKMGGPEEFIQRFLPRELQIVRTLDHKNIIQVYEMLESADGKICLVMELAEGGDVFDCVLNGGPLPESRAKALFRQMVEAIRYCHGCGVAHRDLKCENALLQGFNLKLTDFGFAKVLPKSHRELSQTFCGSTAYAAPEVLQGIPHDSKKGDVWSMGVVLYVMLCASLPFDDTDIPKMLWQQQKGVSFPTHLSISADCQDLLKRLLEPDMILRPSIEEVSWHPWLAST

**Q.** With `CCOCCn1cc(C(=O)Nc2ccc(-n3nc(-c4cccnc4)cc3C(F)(F)F)cn2)ccc1=O` [BI 1935] as the molecule, how does the residual activity [1] read?
**A.** 90%

**Q.** What about the residual activity [2] of the same molecule?
**A.** 87%

**Q.** What about the residual activity [3] of the same molecule?
**A.** 100%

**Q.** And the residual activity [4]?
**A.** 96%

**Q.** What about the residual activity [5] of the same molecule?
**A.** 100%

**Q.** And the residual activity [6]?
**A.** 100%

**Q.** What about the residual activity [7] of the same molecule?
**A.** 87%

**Q.** And the residual activity [8]?
**A.** 117%

**Q.** And the inhibition [9]?
**A.** 3.75%

**Q.** What about the residual activity [10] of the same molecule?
**A.** 100%

**Q.** What about the residual activity [11] of the same molecule?
**A.** 100%

**Q.** And the residual activity [12]?
**A.** 92%

**Q.** What about the residual activity [13] of the same molecule?
**A.** 100%

**Q.** What about the residual activity [14] of the same molecule?
**A.** 87%

**Q.** And the residual activity [15]?
**A.** 100%

**Q.** What about the residual activity [16] of the same molecule?
**A.** 100%

**Q.** What about the residual activity [17] of the same molecule?
**A.** 0%

**Q.** What about the residual activity [18] of the same molecule?
**A.** 100%

**Q.** What about the residual activity [19] of the same molecule?
**A.** 101%

**Q.** What about the residual activity [20] of the same molecule?
**A.** 111%

**Q.** What about the residual activity [21] of the same molecule?
**A.** 100%

**Q.** What about the residual activity [22] of the same molecule?
**A.** 100%

**Q.** What about the residual activity [23] of the same molecule?
**A.** 100%

**Q.** What about the inhibition [24] of the same molecule?
**A.** 13.9%

**Q.** And the residual activity [25]?
**A.** 80%

**Q.** And the residual activity [26]?
**A.** 100%

**Q.** And the residual activity [27]?
**A.** 81%

**Q.** And the inhibition [28]?
**A.** 25.3%

**Q.** What about the residual activity [29] of the same molecule?
**A.** 100%

**Q.** And the residual activity [30]?
**A.** 100%

**Q.** What about the residual activity [31] of the same molecule?
**A.** 114%

**Q.** What about the residual activity [32] of the same molecule?
**A.** 92%

**Q.** And the inhibition [33]?
**A.** -7.51%

**Q.** What about the residual activity [34] of the same molecule?
**A.** 100%

**Q.** What about the residual activity [35] of the same molecule?
**A.** 75%

**Q.** And the residual activity [36]?
**A.** 77%

**Q.** And the residual activity [37]?
**A.** 100%

**Q.** And the residual activity [38]?
**A.** 63%

**Q.** What about the residual activity [39] of the same molecule?
**A.** 163%

**Q.** And the residual activity [40]?
**A.** 97%

**Q.** And the residual activity [41]?
**A.** 100%

**Q.** What about the residual activity [42] of the same molecule?
**A.** 103%

**Q.** And the residual activity [43]?
**A.** 100%

**Q.** What about the residual activity [44] of the same molecule?
**A.** 100%

**Q.** And the residual activity [45]?
**A.** 87%
